Measurements reported in patent US8952010B2, “Amino group-containing pyrrolidinone derivative” (Daiichi Sankyo Company, Limited, priority 2011, dated 2015).
Values after ≈ are worked out from the molar mass of the structure shown.

Test system: MRSA DB00026
Assay: Measurement of antibacterial activity (MIC), standard methods of the Japanese Society of Chemotherapy
Format: cell-based, methicillin-resistant Staphylococcus aureus
Details: Staphylococcus aureus; bacteria: MRSA DB00026
Procedure: The measurement method of antibacterial activity of the compound of the present invention was carried out in accordance with the standard methods specified by the Japanese Society of Chemotherapy, and the results are shown in MIC (μg/mL) (Table 1).

SMILES | MIC [µg/mL]
COc1ccc2ncc(=O)n(CCCNC3CC(=O)N(c4ccc5c(c4)NC(=O)CO5)C3)c2c1 (stereo not shown) [Example 2, 6-(4-{[3-(7-Methoxy-2-oxoquinoxalin-1(2H)-yl)propyl]amino}-2-oxopyrrolidin-1-yl)-2H-1,4-benzoxazin-3(4H)-one] | ≤ 0.06
COc1ccc2ncc(=O)n(CCCCNC3CC(=O)N(c4ccc5c(c4)NC(=O)CO5)C3)c2n1 (stereo not shown) [Example 15, 6-Methoxy-4-(4-{[5-oxo-1-(3-oxo-3,4-dihydro-2H-1,4-benzoxazin-6-yl)pyrrolidin-3-yl]amino}butyl)pyrido[2,3-b]pyrazin-3(4H)-one] | ≤ 0.06
COc1ccc2ncc(=O)n(CCNC[C@H]3CC(=O)N(c4ccc5c(n4)NC(=O)CO5)C3)c2c1 [Example 19, 6-[(4R)-4-({[2-(7-Methoxy-2-oxoquinoxalin-1(2H)-yl)ethyl]amino}methyl)-2-oxopyrrolidin-1-yl]-2H-pyrido[3,2-b][1,4]oxazin-3(4H)-one] | ≤ 0.06
COc1ccc2ncc(=O)n(CC(F)CNC[C@H]3CC(=O)N(c4ccc5c(c4)NC(=O)CO5)C3)c2n1 (stereo partly shown) [Example 23] | ≤ 0.06

The remaining lines, values ahead:

MIC [µg/mL] | SMILES
0.12 (≈ 0.251 µM) | COc1ccc2ncc(=O)n(CCCCNC3CC(=O)N(c4ccc5c(c4)NC(=O)CO5)C3)c2c1 (stereo not shown) [Example 1, 6-(4-{[4-(7-Methoxy-2-oxoquinoxalin-1(2H)-yl)butyl]amino}-2-oxopyrrolidin-1-yl)-2H-1,4-benzoxazin-3(4H)-one]
≤ 0.06 | COc1ccc2ncc(=O)n(CCNC[C@H]3CC(=O)N(c4ccc5c(c4)NC(=O)CO5)C3)c2c1 [Example 16, 6-[(4R)-4-({[2-(7-Methoxy-2-oxoquinoxalin-1(2H)-yl)ethyl]amino}methyl)-2-oxopyrrolidin-1-yl]-2H-1,4-benzoxazin-3(4H)-one]
0.25 (≈ 0.505 µM) | COc1ccc2ncc(=O)n(CC(O)CNC[C@H]3CC(=O)N(c4ccc5c(n4)NC(=O)CO5)C3)c2n1 (stereo partly drawn) [Example 22, 6-[(4R)-4-({[2-Hydroxy-3-(6-methoxy-3-oxopyrido[2,3-b]pyrazin-4(3H)-yl)propyl]amino}methyl)-2-oxopyrrolidin-1-yl)-2H-pyrido[3,2-b][1,4]oxazin-3(4H)-one]
